Entries after “also recorded” stand apart in the source; their conditions may differ. Peptide text beside a SMILES is read from it. * marks the point of attachment. Cbz = O=C(OCc1ccccc1)*; OtBu = CC(C)(C)O*
Tested on: NF-κB
Assay: Electrophoretic mobility shift assay of TNF-induced NF-κB activation in cell lines
Assay type: cell-based, human
Details: for Inhibition of TNF-induced NF-κB-activity: preincubation 10 μM, 1 hr, n=3; for Effect on TNF-induced NF-κB-activity of ozonized substance in phosphate-buffered saline: medium concentration in PBS, 100% ozonation state, 1 hr preincubation, TNF 1 ng/mL 15 min
Description: A) BHY cells were preincubated with serum-free O3-medium (15 min; the ozonation state is indicated in %) before TNF was added (20 ng/mL, 45 min) and electrophoretic mobility shift assay was performed (NF-κB and Sp-1 binding). The asterisk marks a control reaction in which a 100-fold concentration of unlabeled consensus oligonucleotide was added. B) Cells were treated with O3-medium (HGF-1, 45 min; HeLa, 1 hr) followed by stimulation with TNF (HGF-1, 5 ng/mL for 45 min; HeLa, 1 ng/mL for 15 min). NF-κB-activity normalized to Sp-1 is shown (densitometric analysis). NF-κB-activity after TNF stimulation following preincubation with non-ozonized medium was defined as 100% (dashed line) (n=3, mean±SD). C) Periodontal ligament tissue debris separated into equal-sized portions was incubated (1 hr, 37° C.) with serum-free non-ozonized medium (indicated by “-”) or O3-medium (100% ozonation state, indicated by “+”) followed by 2 hr incubation in fresh medium without ozone. The samples were shock frozen, homogenized and nuclear extracts prepared. Left: Electrophoretic mobility shift assays were performed (NF-κB and Sp-1 binding). The asterisk marks a control reaction in which a 100-fold concentration of unlabeled consensus oligonucleotide was added. Right: Densitometrically measured NF-κB-activity was normalized to Sp-1 (n=3, mean±SD). […] A) HeLa cells were incubated with O3-phosphate-buffered saline (1 hr) followed by TNF stimulation (1 ng/mL, 15 min). The ozonation state is indicated in %. Electrophoretic mobility shift assay was performed to determine NF-κB-activity as well as Sp-1 binding. B) Cells were preincubated (1 hr) with non-ozonized or ozonized amino acids (medium concentration) dissolved in phosphate-buffered saline (100% ozonation state) followed by stimulation with TNF (1 ng/mL, 15 min). The activation of NF-κB was determined by electrophoretic mobility shift assay. C) Densitometric analysis of the NF-κB-activity normalized to Sp-1 is shown (n=3, mean±SD). NF-κB-activity of cells preincubated with non-ozonized amino acids in phosphate-buffered saline and stimulated with TNF was defined as 100% (dashed line). D) HeLa cells were preincubated with non-ozonized or ozonized glucose (medium concentration) followed by TNF stimulation. The NF-κB-activity compared to Sp-1 binding was determined by electrophoretic mobility shift assay. […] The proteasome inhibitor PSI was from Calbiochem (Darmstadt, Germany). A potential toxicity of culture conditions was monitored by cell morphology/count, trypan-blue-exclusion and the Luminescent-Cell-Viability-Assay (Promega, Mannheim, Germany). […] Aqueous ozone was applied to the cells in form of ozonized medium without fetal calf serum (O3-medium) or ozonized phosphate-buffered saline (O3-phosphate-buffered saline) without/with 1 g/L amino acids or 2 g/L glucose. These solutions were treated with gaseous ozone (75 μg/mL, 15 min) using an ozone generator (Ozonosan-photonic, Dr. […], Germany). This condition, which applied to water would result in a final ozone concentration of 20 μg/mL (saturation point), was defined as the 100% ozonation state. For dose response experiments, the solutions were accordingly diluted. The ozone gas concentration was monitored by a photometer integrated in the ozone generator and confirmed by another ozone gas detector (GM-6000-NZL, Anseros, Tubingen, Germany). The ozone concentrations of the respective aqueous solutions were monitored photometrically ([…], England). […] The prototypic immunoglobulin κ-chain oligonucleotide was used as a probe and labeled with the Klenow fragment of DNA polymerase I (Roche, Penzberg, Germany) together with [α-^32P]dCTP (PerkinElmer-LifeSciences, Brussels, Belgium). The Sp-1 consensus oligonucleotide (Promega) was labeled with [γ-^32P]ATP (PerkinElmer-LifeSciences) and T4-polynucleotide-kinase (Roche). Samples were run on non-denaturing 4% polyacrylamide gels and analyzed by autoradiography.

SMILES | Inhibition of TNF-induced NF-κB-activity (BHY cells) | Inhibition of TNF-induced NF-κB-activity (HeLa cells) | Effect on TNF-induced NF-κB-activity of ozonized substance in phosphate-buffered saline
CC[C@H](C)[C@H](NC(=O)OCc1ccccc1)C(=O)N[C@@H](CCC(=O)OC(C)(C)C)C(=O)N[C@@H](C)C(=O)N[C@H](C=O)CC(C)C [PSI, reference compound] (Cbz-IE(OtBu)AL-aldehyde) | 68±7% | 75±6% | –
C[C@H](N)C(=O)O [alanine] | – | – | slight reduction
N[C@@H](CS)C(=O)O [cysteine] | – | – | blocked the NF-κB signal almost completely; also recorded: most effective
NCC(=O)O [glycine] | – | – | did not have any effect
CSCC[C@H](N)C(=O)O [methionine] | – | – | clear inhibition
N[C@@H](Cc1c[nH]c2ccccc12)C(=O)O [tryptophan] | – | – | blocked the NF-κB signal almost completely; also recorded: most effective
